The source of these data is paper PMC11765394, “Structure-Based Discovery of MolPort-137: A Novel Autotaxin Inhibitor That Improves Paclitaxel Efficacy” (International Journal of Molecular Sciences, 2025).

The target of experiment [1] is T1, autotaxin (ATX) (Homo sapiens, UniProt Q13822).
T1 construct: gene ENPP2
Description: FS-3 fluorogenic substrate hydrolysis assay with […] purified recombinant human ATX. In kind it is biochemical.

The target in experiment [2] is T1, autotaxin (ATX). Description: biochemical. Details: FS-3 fluorogenic substrate hydrolysis by purified recombinant human ATX, fluorescence read-out. As to the method: The purification of recombinant human ATX was carried out as reported earlier. The potential inhibitory effect of the hits identified through molecular modeling was assessed using the FS-3 assay, which measures fluorescence when the non-natural lipid-like FRET-established substance FS-3 (Echelon Biosciences, Salt Lake City, UT, USA) is hydrolyzed by ATX. A 60 μL volume of reaction mixture containing ATX assay buffer (pH 8.0, containing 10 μM BSA, 50 mM TRIS, […], 5 mM KCl, 1 mM CaCl2, and 1 mM MgCl2) was added to each well of a black-wall 96-well plate. Recombinant ATX was then added to achieve a final concentration of 4 nM. The compounds were dissolved in DMSO and transferred to a 96-well plate in technical triplicate. Single-dose testing was performed with a final well concentration of 10 μM, while dose–response assays involved eight different concentrations of the test compound. FS-3 was then added to achieve a concluding well strength of 1 μM, and fluorescence was quantified on a CLARIOstar Plus plate reader (BMG Labtech, Ortenberg, Baden-Württemberg, Germany) for two hours, with scans every two minutes at excitation/emission wavelengths of 485/528 nm. Percent activity was calculated relative to DMSO-treated control wells. […] Inhibition tests were conducted to target ATX-facilitated hydrolysis of FS3 (LPC homolog) using 15 compounds at 10 μM. Compounds inhibiting more than 50% of FS-3 hydrolysis were classified as hits. […] BMP-22, a known ATX inhibitor, served as a control with an IC50 of 0.2 ± 0.0 μM, consistent with reported values.

The IC50 is the concentration that gives 50% inhibition. Consider `CCCCCCCCCCCCCCCc1ccc(CP(=O)(O)O)cc1` [BMP-22, reference compound], for which the IC50 in experiment [1] is 200 nM.

The term inhibition denotes the change of the read-out against control, counted positive when it falls. On to `COc1ccc(NC(=O)CSc2nc(=O)c3c(C)cc(C)nc3n2-c2cccc(C)c2C)cc1` [MolPort-072], for which the inhibition at 10 µM in experiment [2] was 42%.

Regarding `Cc1ccc(-c2noc(-c3nnn(Cc4nc(-c5ccccc5)oc4C)c3C)n2)cc1C` [MolPort-122], the inhibition at 10 µM in experiment [2] stood at 15.5%.

In the case of `Cc1cc(F)ccc1NC(=O)c1cnn2c(=O)c3c(n(C)c12)CCN(Cc1ccccc1)C3` [MolPort-137], the inhibition at 10 µM in experiment [2] amounted to 75.9%.

As for `Cc1cccc(-n2c(SCC(=O)Nc3ccc(C)c(C)c3)nc3[nH]nc(C)c3c2=N)c1` [MolPort-144], in experiment [2], the inhibition at 10 µM was -13.5%.

Take `Cc1cccc(NC(=O)Cn2nc3c(Oc4ccccc4C)nc4ccccc4n3c2=O)c1` [MolPort-161]: in experiment [2], the inhibition at 10 µM came to 5.16%.

Turning to `COc1ccccc1-c1nc(Cn2nnc(-c3nc(-c4ccc(C)cc4)no3)c2C)c(C)o1` [MolPort-185], the inhibition at 10 µM in experiment [2] came to 33.7%.

As to `Cc1ccc(NC(=O)Cn2nc3c(Oc4cccc(C)c4C)nc4ccccc4n3c2=O)cc1C` [MolPort-240], in experiment [2], the inhibition at 10 µM came to 2.06%.

Consider `Cc1cc(NC(=O)Cn2nc3c(Oc4ccccc4C)nc4ccccc4n3c2=O)ccc1Br` [MolPort-311], for which the inhibition at 10 µM in experiment [2] stood at 5.23%.

`Cc1cc(-n2c(SCC(=O)Nc3ccc(F)c(F)c3)nc3n[nH]c(C)c3c2=N)ccc1Cl` [MolPort-323]: the inhibition at 10 µM in experiment [2] was 5%.

Take `Cc1ccccc1NC(=O)c1nnn(Cc2nc(-c3cccc(Cl)c3)oc2C)c1C` [MolPort-495]: the inhibition at 10 µM in experiment [2] amounted to 27.2%.

With `Cc1cc(C)cc(NC(=O)Cn2c(=O)nc(N3CCCC(C)C3)c3ccccc32)c1` (centres unmarked) [MolPort-616], the inhibition at 10 µM in experiment [2] was 26.4%.

Consider `CCc1cccc(NC(=O)Cn2nc3c(Oc4ccccc4C)nc4ccccc4n3c2=O)c1` [MolPort-674], for which, in experiment [2], the inhibition at 10 µM is 7.1%.

On to `COc1cc(C=C2N=C(c3ccc(F)cc3)OC2=O)cc(I)c1OCc1cccc(C)c1` [MolPort-839], for which the inhibition at 10 µM in experiment [2] was 10.8%.

As for `Cc1cc(C)cc(-n2c(CN3CCN(C(=O)Nc4ccccc4F)CC3)nc3cccnc32)c1` [MolPort-904], in experiment [2], the inhibition at 10 µM is 29.7%.

Turning to `Cc1cccc(CNC(=O)c2c(O)c3cccnc3n(-c3cccc(F)c3)c2=O)c1` [MolPort-914], the inhibition at 10 µM in experiment [2] is 7.61%.

In the case of MolPort-137, the IC50 in experiment [1] worked out at 1600 ± 200 nM.
